{"source": "patent US12233047B2", "about": "“Pharmaceutical combination and use thereof” (ASCENTAGE PHARMA (SUZHOU) CO., LTD., priority 2019, dated 2025)", "biological_target": "T1, FLT3 (D835H) (Homo sapiens, UniProt P36888, D835H)", "T1 construct": "host or cells: T7 phage in E. coli (BL21-derived) or HEK-293", "T1 sequence (P36888 27-993 D835H)": "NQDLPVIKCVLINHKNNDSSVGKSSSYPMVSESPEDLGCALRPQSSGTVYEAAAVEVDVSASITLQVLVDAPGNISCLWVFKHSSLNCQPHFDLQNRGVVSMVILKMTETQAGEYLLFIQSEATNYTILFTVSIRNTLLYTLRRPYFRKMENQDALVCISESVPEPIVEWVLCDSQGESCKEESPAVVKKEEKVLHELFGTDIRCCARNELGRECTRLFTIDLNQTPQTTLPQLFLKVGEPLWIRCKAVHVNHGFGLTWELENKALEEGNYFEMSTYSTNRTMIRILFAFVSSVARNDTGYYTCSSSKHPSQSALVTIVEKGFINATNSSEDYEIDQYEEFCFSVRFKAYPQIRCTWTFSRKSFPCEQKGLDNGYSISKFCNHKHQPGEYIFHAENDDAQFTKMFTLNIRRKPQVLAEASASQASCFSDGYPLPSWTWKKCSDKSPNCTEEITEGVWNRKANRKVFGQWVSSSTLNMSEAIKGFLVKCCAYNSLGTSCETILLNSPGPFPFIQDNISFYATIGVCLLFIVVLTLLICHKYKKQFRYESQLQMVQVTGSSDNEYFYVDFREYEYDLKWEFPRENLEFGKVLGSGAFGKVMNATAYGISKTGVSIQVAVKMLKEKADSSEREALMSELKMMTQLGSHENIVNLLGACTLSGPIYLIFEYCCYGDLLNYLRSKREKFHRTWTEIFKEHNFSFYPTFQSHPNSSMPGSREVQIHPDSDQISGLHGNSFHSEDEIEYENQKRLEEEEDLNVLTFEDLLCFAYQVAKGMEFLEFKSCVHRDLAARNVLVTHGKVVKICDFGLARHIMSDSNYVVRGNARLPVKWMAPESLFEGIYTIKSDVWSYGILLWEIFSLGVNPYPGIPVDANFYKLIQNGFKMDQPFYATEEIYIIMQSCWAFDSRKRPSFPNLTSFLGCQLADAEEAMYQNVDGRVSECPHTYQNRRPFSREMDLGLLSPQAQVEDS", "assay": "KINOMEscan kinase binding assay, FLT3 (D835H)", "description": "The kinase assay was conducted using KINOMEscan™.\nKinase-tagged T7 phage strains were grown in parallel in 24-well blocks in an E. coli host derived from the BL21 strain. E. coli were grown to log-phase and infected with T7 phage from a frozen stock (multiplicity of infection=0.4) and incubated with shaking at 32° C. until lysis (90-150 minutes). The lysates were centrifuged (6,000×g) and filtered (0.2 μm) to remove cell debris. The remaining kinases were produced in HEK-293 cells and subsequently tagged with DNA for qPCR detection. Streptavidin-coated magnetic beads were treated with biotinylated small molecule ligands for 30 minutes at room temperature to generate affinity resins for kinase assays. The liganded beads were blocked with excess biotin and washed with blocking buffer (SeaBlock (Pierce), 1% BSA, 0.05% Tween 20, 1 mM DTT) to remove unbound ligand and to reduce non-specific phage binding. Binding reactions were assembled by combining kinases, liganded affinity beads, and test compound (Compound 23) in 1× binding buffer (20% SeaBlock, 0.17×PBS, 0.05% Tween 20, 6 mM DTT). Test compound were prepared as 40× stocks in 100% DMSO and directly diluted into the assay. All reactions were performed in polypropylene 384-well plates in a final volume of 0.04 ml. […] The kinase concentration in the eluates was measured by qPCR. […]"}
{"smiles": "Cc1ccc(C(=O)Nc2ccc(CN3CCN(C)CC3)c(C(F)(F)F)c2)cc1C#Cc1cnc2[nH]ncc2c1", "note": "[Compound 23, 3-(2-(1H-pyrazolo[3,4-b]pyridin-5-yl)ethynyl)-4-methyl-N-(4-((4-methylpiperazin-1-yl)methyl)-3-(trifluoromethyl)phenyl)benzamide]", "values": [{"measurement": "% Ctrl@10 nM", "setting": "10 nM", "result": 18, "unit": "% Ctrl"}, {"measurement": "% Ctrl@100 nM", "setting": "100 nM", "result": 2.2, "unit": "% Ctrl"}]}
